# Measured values from patent publication US10457811B2, “Surface-modified calcium oxide” (Kalkfabrik Netstal AG, priority 2012, dated 2019).
# Structures can show the parent of a compound that is named as a salt.
# Tested on: Erwinia amylovora strain 385 (Ea385)
# Experiment: Fire blight test on inoculated apple blossoms (Gala)
# Type: in vivo
# Conditions: 0.06% spray solution, 1 hour after inoculation, reduction of infestation after 6 days
# Protocol: Finely pulverized CaO was coated with stearic acid (5% by weight of stearic acid relative to CaO) and was tested, as dust on apple blossoms, against fire blight. The standardized tests were carried out at an institute certified therefor (bio-ferm Research GmbH, DE). Apple blossoms of the Gala type were placed, with the pedicel, in a 10% saccharose solution and were incubated in a humid chamber. Inoculation/pathogen: Erwinia amylovora strain 385 (Ea385), as a bacterial suspension of fresh cultures with 10 million cells per milliliter, was sprayed onto the blossoms. Infested blossoms were treated, 1 hour after inoculation, with the coated CaO as dust (test series) or were subjected to the standard treatment (streptomycin sulfate 0.06% as spray solution; control and benchmark). Evaluation: The blossoms were investigated after 6 days, and analyzed in terms of the pathogen-typical features of an infection (slime spots). 39% of the blossoms without treatment were infested with fire blight. The reduction of the infestation by means of the corresponding treatment was evaluated, in terms of the efficacy of the treatment.
compound,measurement,value
"[H]/N=C(/N)N[C@H]1[C@H](O)[C@@H](O)[C@H](O[C@@H]2O[C@@H](C)[C@](O)(C=O)[C@H]2O[C@@H]2O[C@@H](CO)[C@H](O)[C@@H](O)[C@@H]2NC)[C@@H](N/C(N)=N\[H])[C@@H]1O [Streptomycin sulfate, streptomycin sulfate]",Efficacy of the treatment,68%
